Results as given in patent US20120129897A1, “BIS HETEROARYL INHIBITORS OF PRO-MATRIX METALLOPROTEINASE ACTIVATION” (priority 2010, published 2012).

What was measured:
proMMP9 = molecular target: T1, proMMP9 (Homo sapiens, UniProt P14780); assay: Activation of proMMP9 by human fetal lung fibroblast (HFL-1) cultures (Western blot); format: cell-based; conditions: for Signal of 80 kD band (INT*mm^2): pAb-1246
T1 construct: endogenous in cells; host or cells: HFL-1 (ATCC CCL-153), TNFα and neutrophil elastase added
T1 sequence (P14780 20-707 limits assumed): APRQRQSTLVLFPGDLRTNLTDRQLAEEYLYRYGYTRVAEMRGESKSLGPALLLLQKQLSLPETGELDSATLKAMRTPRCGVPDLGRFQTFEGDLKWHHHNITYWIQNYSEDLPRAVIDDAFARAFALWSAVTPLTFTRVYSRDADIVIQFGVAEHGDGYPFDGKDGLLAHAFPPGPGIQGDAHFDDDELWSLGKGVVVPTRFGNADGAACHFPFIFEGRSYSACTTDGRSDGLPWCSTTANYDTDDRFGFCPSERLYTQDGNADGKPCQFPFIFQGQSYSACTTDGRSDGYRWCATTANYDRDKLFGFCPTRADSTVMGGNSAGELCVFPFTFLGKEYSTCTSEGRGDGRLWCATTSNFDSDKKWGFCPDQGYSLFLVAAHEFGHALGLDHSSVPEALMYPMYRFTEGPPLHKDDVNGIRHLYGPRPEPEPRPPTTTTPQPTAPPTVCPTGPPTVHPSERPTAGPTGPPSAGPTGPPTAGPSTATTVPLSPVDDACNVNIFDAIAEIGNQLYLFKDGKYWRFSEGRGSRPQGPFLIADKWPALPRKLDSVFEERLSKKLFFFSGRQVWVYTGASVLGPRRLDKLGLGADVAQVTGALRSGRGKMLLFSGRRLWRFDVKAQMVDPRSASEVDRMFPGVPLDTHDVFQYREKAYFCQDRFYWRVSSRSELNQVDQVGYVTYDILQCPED
Experimental: Compound-α was assessed additionally for ability to block the maturation of proMMP9 to active MMP9 in cultures of human fetal lung fibroblasts (HFL-1, American Type Culture Collection #CCL-153). Unlike rat synoviocytes, HFL-1 cells were unable to process proMMP9 to the active form without addition of neutrophil elastase. […] Rather, the function of elastase in this assay may be to inactivate tissue inhibitors of matrix metalloproteinases (TIMPs) that repress endogenous pathways of MMP9 activation (Am J Respir Crit Care Med; 1999; 159:1138-46).
HLF-1 were maintained in monolayer culture in DMEM with 10% FCS and were used between passage numbers 5-15. HLF-1 were embedded in collagen gels as described for rat SCW synoviocytes (vida supra). Half mL gels containing 0.4 million cells were dislodged into wells of 12 well Costar plates containing 1 mL/well of DMEM adjusted to contain 0.05% BSA and 100 ng/mL human TNFα (R&D Systems Cat #210-TA/CF). After overnight culture (37° C. and 5% CO2) wells were adjusted to contain an additional 0.5 mL of DMEM containing 0.05% BSA and with or without 13.2 μM Compound-α (final concentration was 3.3 μM Compound-α). Next, cultures were adjusted to contain 30 nM human elastase (Innovative Research). The plates were cultured an additional 72 hrs, at which time MMP9 secreted into the conditioned media was bound to gelatin-sepharose and evaluated by Western blot analysis as described for the rat synoviocyte cultures (vida supra). mAb-51/82 detected three forms of MMP9 in HFL-1 cultures.
A second experiment was performed to determine if the 80 kD form was mature active MMP9 and to determine the potency of Compound-α as an inhibitor of MMP9 maturation in this assay. HFL-1 cells embedded in collagen gels were cultured as described above in the presence of TNFα overnight and the cultures were then adjusted to contain 30 nM elastase and graded concentrations of Compound-α for an additional 72 hrs at which time MMP9 secreted into the conditioned media was bound to gelatin-sepharose and evaluated by Western blot analysis for active MMP9 using pAb-1246 raised against the N-terminal neoepitope of active MMP9 (Table 5). In the absence of Compound-α, pAb-1246 readily detected MMP9 with an electrophoretic mobility of approximately 80 kD. […] Inhibition occurred over a dose range with an IC50 of approximately 0.3 μM Compound-α.

MMP9 = molecular target: T2, MMP9 (Rattus norvegicus, UniProt P50282); assay: Western blot of pro and active MMP9 in ankles of rats with SCW-induced arthritis; format: in vivo; conditions: Day 26, four hours after AM dose; for Abundance of proMMP9 in ankles: mAb-L51/82, FIG. 3A
T2 construct: Pro and active MMP9 were abundantly present in ankles of SCW-induced vehicle-treated rats; from tissue; host or cells: ankle (tibia-tarsus joint) homogenate, female Lewis rats
T2 sequence (P50282 108-708): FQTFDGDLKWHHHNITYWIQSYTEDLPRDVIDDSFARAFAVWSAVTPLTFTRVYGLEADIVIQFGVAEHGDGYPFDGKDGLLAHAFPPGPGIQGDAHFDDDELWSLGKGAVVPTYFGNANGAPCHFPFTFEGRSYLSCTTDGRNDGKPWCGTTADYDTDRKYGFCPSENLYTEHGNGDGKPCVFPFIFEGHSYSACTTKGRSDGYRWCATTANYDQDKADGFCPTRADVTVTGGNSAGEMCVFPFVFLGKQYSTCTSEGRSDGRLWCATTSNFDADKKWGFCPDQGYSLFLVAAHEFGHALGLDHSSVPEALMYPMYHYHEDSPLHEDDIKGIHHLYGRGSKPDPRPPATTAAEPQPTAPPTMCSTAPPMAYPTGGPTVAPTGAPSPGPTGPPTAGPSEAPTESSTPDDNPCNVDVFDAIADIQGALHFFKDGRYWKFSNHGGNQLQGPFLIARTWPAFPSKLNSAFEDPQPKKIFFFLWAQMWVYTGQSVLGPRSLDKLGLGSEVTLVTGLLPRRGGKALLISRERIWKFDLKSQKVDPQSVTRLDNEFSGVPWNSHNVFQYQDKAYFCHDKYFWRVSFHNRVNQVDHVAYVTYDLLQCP
Experimental: Hind-limbs were skinned, severed just above the tibia-tarsus joint and below the metatarsals, and the tibia-tarsus joints (ankles) were weighed, snap frozen and pulverized on dry ice using a hammer and anvil. The pulverized tissue was suspended in 3 volumes (w:v) of ice-cold homogenization buffer containing 50 mM Tris pH 7.5, 150 mM NaCl, 5 mM EDTA, 1% Triton X100, 0.05% Brij 30, 10% dimethylsulfoxide and Complete EDTA-free Protease Inhibitor Cocktail (Roche Diagnostics). The suspended tissue was homogenized sequentially with a Kinematica AG Polytron and a Dounce homogenizer. Homogenates were centrifuged at 16,000×g for 10 min at 4° C. and the soluble fractions were saved. Dimethylsulfoxide was removed from a portion of each soluble fraction using PD MiniTrap™ G-25 desalting columns (GE Healthcare). Homogenates (0.25 mL), free of DMSO, were diluted with an equal volume of binding buffer (i.e., homogenization buffer without dimethylsufoxide) and adjusted to contain 50 μL of a 50% slurry of gelatin-conjugated sepharose. Following 2 hours of rotation at 4° C. the beads were washed twice in binding buffer and eluted in 100 μL 2×-reducing Laemmli buffer with heating to 95° C. for 5 minutes. Eluates (20 μL) were resolved on 4-12% NuPAGE gels, transferred to 0.45 μm pore-sized nitrocellose and immunoblotted for detection of proMMP9, active MMP9, and other processed forms using mAb-L51/82 and pAb-1246 as described above for detection of MMP9 forms in synoviocyte and HFL-1 cell conditioned media.
Rats in the study reported in Tables 4 and 5 were sacrificed on Day 26 four hours after the AM dose. Ankles harvested from the right-hind-limbs were processed by the method described above. Pro and active MMP9 were abundantly present in ankles of SCW-induced vehicle-treated rats (FIGS. 3A and 3B, lanes 1-3).

[1] = 3.3 μM, 30 nM elastase, final 72 hrs, mAb-L51/82

Compound: Cc1nc(C)c(-c2csc(Nc3cc(S(N)(=O)=O)ccc3OC(C)C)n2)s1 [Compound-α, 3-(2′,4′-Dimethyl-[4,5′]bithiazolyl-2-ylamino)-4-isopropoxy-benzenesulfonamide.HBr]
- Signal of 80 kD band (INT*mm^2) (proMMP9; 0.12 μM, 30 nM elastase, final 72 hrs): 168211 INT*mm^2
- Signal of 80 kD band (INT*mm^2) (proMMP9; 0.37 μM, 30 nM elastase, final 72 hrs): 45996 INT*mm^2
- Signal of 80 kD band (INT*mm^2) (proMMP9; 1.1 μM, 30 nM elastase, final 72 hrs): 1747 INT*mm^2
- Percent of total signal, 80 kD (proMMP9; [1]): 7%
- Percent of total signal, 86 kD (proMMP9; [1]): 47%
- Percent of total signal, 100 kD (proMMP9; [1]): 46%
- Signal (INT*mm^2), 80 kD (proMMP9; [1]): 6092 INT*mm^2
- Signal (INT*mm^2), 86 kD (proMMP9; [1]): 43147 INT*mm^2
- Signal (INT*mm^2), 100 kD (proMMP9; [1]): 42107 INT*mm^2
- Signal (INT*mm^2), Total (proMMP9; [1]): 91346 INT*mm^2
- Signal of 80 kD band (INT*mm^2) (proMMP9; 3.3 μM, 30 nM elastase, final 72 hrs): 152 INT*mm^2
- Processing of MMP9 forms by HFL-1 cells (proMMP9; 3.3 μM, mAb-L51/82): the formation of the 80 kD form was suppressed
- Signal of 80 kD band (INT*mm^2) (proMMP9; 10 μM, 30 nM elastase, final 72 hrs): 0 INT*mm^2
- Abundance of proMMP9 in ankles (MMP9): did not reduce the abundance of proMMP9
- Abundance of proMMP9 in ankles (MMP9; listed as Compound a): did not reduce the abundance of proMMP-9
- Active 80 kD form of MMP9 in ankles (MMP9; pAb-1246 and mAb-L51/82, FIG. 3): notable reduction in the active 80 kD form of MMP9
